Reference: patent US10280163B2 (BeiGene, Ltd., priority 2015, dated 2019)
Read-outs that look alike come from different tables or passages of the source.

Key:
[1] = molecular target: T1, cellular IDO1 in HeLa cells (Homo sapiens, UniProt P14902); assay: HeLa cell-based IDO1 Kyn (kynurenine) production assay; details: IFN-γ 100 ng/mL, 48 hours
T1 construct: endogenous in cells; host or cells: HeLa cells (American Type Tissue Culture Collection), induced with human recombinant IFN-γ
Description: HeLa Cell-Based IDO1 Kyn (Kynurenine) Production Assay:
The inhibitory activity of IDO1 inhibitors is determined by using a colorimetric reaction to measure Kyn generated from L-Trp (L-Tryptophon) oxidation by cellular IDO1 in HeLa cells after induction of IDO1 by IFN-γ.
Hela cells were obtained from the American Type Tissue Culture Collection and recovered in 10% FBS-containing phenol red-free DMEM medium supplemented with 0.4 mM L-Trp. Cells were plated onto a 96-well plate (100 μl/well) at 8000 cells per well. Human recombinant IFN-γ (8901SC, CST) was added to cells (final concentration 100 ng/mL) to stimulate endogenous IDO1. Compounds at different concentrations diluted in dimethylsulfoxide (DMSO) were added simultaneously with IFN-γ. Cells were kept at 37° C. in a humidified incubator supplied with 5% CO2. After 48 hours of incubation, 100 μl supernatant from each well was removed to a new plate. The protein in the medium was precipitated with the addition of 8 μl 6N trichloroacetic acid. The plate was incubated at 60° C. for 45 min and then centrifugation at 2500 rpm for 10 min to remove sediments. 80 μl supernatants were carefully removed to a new clean plate and added with an equal volume of 2% 4-(Dimethylamino) benzaldehyde (D2004, sigma) dissolved in glacial acetic acid. The absorbance at 480 nm wavelength derived from Kyn was measured using a FULOstar OMEGA plate reader (BMG LABTECH). The IC50 for each compound was derived from fitting the dose-response data to the four-parameter logistic model by using Graphpad Prism software.

[2] = molecular target: T2, Recombinant IDO1 (Homo sapiens, UniProt P14902); assay: IDO1 enzymatic assay; assay type: biochemical; details: 50 nM IDO1, 1.3 mM D-tryptophan, read-out: Enzyme IC50 (nM) IDO1
T2 construct: His tag (N); made in house; host or cells: E. coli
Description: Recombinant IDO1 was overexpressed and purified from E. coli cells with an N-terminal His tag. IDO1 enzymatic assay was carried out using a methodology similar to described in the literature (J. Biol. Chem. (1980), 255, 1339-1345.). The reaction mixture contains 50 nM IDO1, 1.3 mM D-tryptophan, 5 mM L-ascorbic acid, 6.25 μM methylene Blue, 0.4 mg/mL catalase and compound (or DMSO) in a buffer containing 50 mM potassium phosphate pH 7.5 and 0.1% BSA. After incubation at 24° C. for 1.5 hours, absorbance of the reaction mixture was continuously read at 321 nm to monitor the formation of N′-formylkynurenine by a FULOstar OMEGA plate reader (BMG LABTECH) for 1 hour. The enzymatic activity was determined by measuring the slope of the linear absorbance increase as a function of time. The IC50s are calculated based on remaining enzyme activity in the presence of increasing concentrations of compounds.

[3] = Table 2, 8-substituted imidazo[1,5-a]pyridines
[4] = Table 1, 5-substituted imidazo[1,5-a]pyridines

T2 sequence (P14902 whole entry): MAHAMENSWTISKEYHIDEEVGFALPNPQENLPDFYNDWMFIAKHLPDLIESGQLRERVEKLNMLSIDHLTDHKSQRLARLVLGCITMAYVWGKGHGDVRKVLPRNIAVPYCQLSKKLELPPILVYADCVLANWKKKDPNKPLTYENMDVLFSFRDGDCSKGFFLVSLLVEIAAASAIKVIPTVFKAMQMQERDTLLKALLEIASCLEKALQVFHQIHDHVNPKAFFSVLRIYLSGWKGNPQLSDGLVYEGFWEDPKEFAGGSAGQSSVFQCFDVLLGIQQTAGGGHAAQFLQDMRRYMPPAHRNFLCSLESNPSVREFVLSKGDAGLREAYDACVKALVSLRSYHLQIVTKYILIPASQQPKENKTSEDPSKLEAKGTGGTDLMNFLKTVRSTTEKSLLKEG
T1 sequence (P14902 whole entry): as above

`CC(C)c1ccn2cncc2c1C(O)[C@H]1CC[C@@H](O)CC1` (single isomer, unassigned) [Example B121d] was tested, and the EC50 [1, 3] was > 10000 nM and the IC50 [2, 3] was 46000 nM.
`O[C@H](c1c(C2CC2)ccn2cncc12)C1CC2CCC1C2` (single isomer, unassigned) [Example B122b] was tested, and the EC50 [1, 3] was 295 nM and the IC50 [2, 3] was 78 nM.
With `OC(c1c([C@H]2C[C@@H]2F)ccn2cncc12)C1CCCCC1` (single isomer, unassigned) [Example B128b, Cyclohexyl(7-((trans)-2-fluorocyclopropyl)imidazo[1,5-a]pyridin-8-yl)methanol] the EC50 [1, 3] was > 10000 nM and the IC50 [2, 3] was 39000 nM.
In the case of `OC(c1c([C@H]2C[C@@H]2F)ccn2cncc12)C1CCCCC1` (single isomer, unassigned) [Example B128c, Cyclohexyl(7-((trans)-2-fluorocyclopropyl)imidazo[1,5-a]pyridin-8-yl)methanol], the EC50 [1, 3] is reported as > 10000 nM and the IC50 [2, 3] is reported as 110000 nM.
In the case of `CS(=O)(=O)N1CCCC(C(O)c2c(C3CC3)ccn3cncc23)C1` (single isomer, unassigned) [Example B130a, (7-Cyclopropylimidazo[1,5-a]pyridin-8-yl)(1-(methylsulfonyl)piperidin-3-yl)methanol], the EC50 [1, 3] is reported as > 10000 nM and the IC50 [2, 3] is reported as 1400 nM.
Work on `CS(=O)(=O)N1CCCC(C(O)c2c(C3CC3)ccn3cncc23)C1` (single isomer, unassigned) [Example B130b, (7-Cyclopropylimidazo[1,5-a]pyridin-8-yl)(1-(methylsulfonyl)piperidin-3-yl)methanol] yielded an EC50 [1, 3] of 909 nM and an IC50 [2, 3] of 1200 nM.
`CC(=O)N1CCCC(C(O)c2c(C3CC3)ccn3cncc23)C1` (single isomer, unassigned) [Example B133a, 1-(3-((7-Cyclopropylimidazo[1,5-a]pyridin-8-yl)(hydroxy)methy)piperidin-1-yl)ethan-1-one] was tested, and the EC50 [1, 3] was > 10000 nM and the IC50 [2, 3] was 1900 nM.
For `CC(=O)N1CCCC(C(O)c2c(C3CC3)ccn3cncc23)C1` (single isomer, unassigned) [Example B133b, 1-(3-((7-Cyclopropylimidazo[1,5-a]pyridin-8-yl)(hydroxy)methy)piperidin-1-yl)ethan-1-one], the EC50 [1, 3] was 6810 nM and the IC50 [2, 3] was 1100 nM.
For `NS(=O)(=O)N1CCCC(C(O)c2c(C3CC3)ccn3cncc23)C1` (single isomer, unassigned) [Example B135a, 3-((7-Cyclopropylimidazo[1,5-a]pyridin-8-yl)(hydroxy)methyl)piperidine-1-sulfonamide], the EC50 [1, 3] was > 10000 nM and the IC50 [2, 3] was 1100 nM.
In the case of `NS(=O)(=O)N1CCCC(C(O)c2c(C3CC3)ccn3cncc23)C1` (single isomer, unassigned) [Example B135b, 3-((7-Cyclopropylimidazo[1,5-a]pyridin-8-yl)(hydroxy)methyl)piperidine-1-sulfonamide], the EC50 [1, 3] is reported as 1350 nM and the IC50 [2, 3] is reported as 950 nM.
Compound `OC(c1c(C2CC2)ccn2cncc12)C1CCC(c2ccccc2)CC1` (single isomer, unassigned) [Example B143a, (S)-(7-cyclopropylimidazo[1,5-a]pyridin-8-yl)(trans or cis-4-phenylcyclohexyl)methanol] has an EC50 [1, 3] of 79 nM and an IC50 [2, 3] of 56 nM.
With `OC(c1c(C2CC2)ccn2cncc12)C1CCC(c2ccccc2)CC1` (single isomer, unassigned) [Example B143b, (S)-(7-cyclopropylimidazo[1,5-a]pyridin-8-yl)(cis or trans-4-phenylcyclohexyl)methanol] the EC50 [1, 3] was 8660 nM and the IC50 [2, 3] was 300 nM.
`CC(C)(C)C(O)c1cccc2cncn12` (stereo not shown) [Example A004, 1-(imidazo[1,5-a]pyridin-5-yl)-2,2-dimethylpropan-1-ol] was tested, and the EC50 [1, 4] was > 10000 nM and the IC50 [2, 4] was 360 nM.
`CC(C)C(O)c1cccc2cncn12` (stereo not shown) [Example A005, 1-(imidazo[1,5-a]pyridin-5-yl)-2-methylpropan-1-ol] was tested, and the EC50 [1, 4] was > 10000 nM and the IC50 [2, 4] was 1500 nM.
In the case of `OC(c1ccc(F)cc1)c1cccc2cncn12` (stereo not shown) [Example A008, (4-fluorophenyl)(imidazo[1,5-a]pyridin-5-yl)methanol], the EC50 [1, 4] is reported as > 10000 nM and the IC50 [2, 4] is reported as 2400 nM.
`CC(O)(c1cccc2cncn12)C1CCCCC1` (stereo not shown) [Example A016, 1-cyclohexyl-1-(imidazo[1,5-a]pyridin-5-yl)ethan-1-ol] was tested, and the EC50 [1, 4] was > 10000 nM and the IC50 [2, 4] was 23000 nM.
In the case of `FC(c1cc(Cl)cc2cncn12)C1CCCCC1` (stereo not shown) [Example A021, 7-chloro-5-(cyclohexylfluoromethyl)imidazo[1,5-a]pyridine], the EC50 [1, 4] is reported as > 10000 nM and the IC50 [2, 4] is reported as 1800 nM.
`OC(CC1CCCCC1)c1ccc(Cl)c2cncn12` (stereo not shown) [Example A025, 1-(8-chloroimidazo[1,5-a]pyridin-5-yl)-2-cyclohexylethan-1-ol] was tested, and the EC50 [1, 4] was > 10000 nM and the IC50 [2, 4] was 2500 nM.
`OCC1(C(O)c2cc(Cl)cc3cncn23)CCCCC1` (stereo not shown) [Example A106, (7-chloroimidazo[1,5-a]pyridin-5-yl)(1-(hydroxymethyl)cyclohexyl)methanol] was tested, and the EC50 [1, 4] was 1660 nM and the IC50 [2, 4] was 120 nM.
For `CC(C1CCCCC1)C(O)c1c(Cl)ccc2cncn12` (stereo not shown) [Example A121, 1-(6-chloroimidazo[1,5-a]pyridin-5-yl)-2-cyclohexylpropan-1-ol], the EC50 [1, 4] was 1570 nM and the IC50 [2, 4] was 29 nM.
`OC(c1c(C2CC2)ccc2cncn12)C1CC1` (stereo not shown) [Example A137, cyclopropyl(6-cyclopropylimidazo[1,5-a]pyridin-5-yl)methanol] was tested, and the EC50 [1, 4] was 3760 nM and the IC50 [2, 4] was 25 nM.
With `OC1CCC([C@H](O)c2c(C3CC3)ccc3cncn23)CC1` (stereo partly drawn) [Example A142a, (1R,4s)-4-((S)-(6-cyclopropylimidazo[1,5-a]pyridin-5-yl)(hydroxy)methyl)cyclohexan-1-ol] the EC50 [1, 4] was 661 nM and the IC50 [2, 4] was 12 nM.
With `OC(c1c(C2=CCCC2)ccc2cncn12)C1CCCCC1` (stereo not shown) [Example A157, cyclohexyl(6-(cyclopent-1-en-1-yl)imidazo[1,5-a]pyridin-5-yl)methanol] the EC50 [1, 4] was 2680 nM and the IC50 [2, 4] was 200 nM.
For `OC(c1c(C2CCCC2)ccc2cncn12)C1CCCCC1` (stereo not shown) [Example A158, cyclohexyl(6-cyclopentylimidazo[1,5-a]pyridin-5-yl)methanol], the EC50 [1, 4] was 933 nM and the IC50 [2, 4] was 880 nM.
For `O=C(O)c1cccc(C(O)c2c(C3CC3)ccc3cncn23)c1` (stereo not shown) [Example A159, 3-((6-cyclopropylimidazo[1,5-a]pyridin-5-yl)(hydroxy)methyl)benzoic acid], the EC50 [1, 4] was > 10000 nM and the IC50 [2, 4] was 5500 nM.
`O=C(NC1CC1)c1cccc(C(O)c2c(C3CC3)ccc3cncn23)c1` (stereo not shown) [Example A160, N-cyclopropyl-3-((6-cyclopropylimidazo[1,5-a]pyridin-5-yl)(hydroxy)methyl)benzamide] showed an EC50 [1, 4] of 5610 nM and an IC50 [2, 4] of 81 nM.
For `O=C1C2CCC(C2)C1C(O)c1c(C2CC2)ccc2cncn12` (stereo not shown) [Example A161, 3-((6-cyclopropylimidazo[1,5-a]pyridin-5-yl)(hydroxy)methyl)bicyclo[2.2.1]heptan-2-one], the EC50 [1, 4] was > 10000 nM and the IC50 [2, 4] was 57000 nM.
`OC(c1c(C2CC2)ccc2cncn12)C1CC2CCC1C2` (stereo not shown) [Example A162, (Bicyclo[2.2.1]heptan-2-yl)(6-cyclopropylimidazo[1,5-a]pyridin-5-yl)methanol] was tested, and the EC50 [1, 4] was 34 nM and the IC50 [2, 4] was 32 nM.
`O[C@H](c1c(C2CC2)ccc2cncn12)C1CC2CCC1C2` (stereo partly drawn) [Example A162a, (1S)-(bicyclo[2.2.1]heptan-2-yl)(6-cyclopropylimidazo[1,5-a]pyridin-5-yl)methanol] showed an EC50 [1, 4] of 8.8 nM and an IC50 [2, 4] of 11 nM.
Compound `O[C@@H](c1c(C2CC2)ccc2cncn12)C1CC2CCC1C2` (stereo partly drawn) [Example A162b, (1R)-(bicyclo[2.2.1]heptan-2-yl)(6-cyclopropylimidazo[1,5-a]pyridin-5-yl)methanol] has an EC50 [1, 4] of 6040 nM and an IC50 [2, 4] of 1600 nM.
Compound `OC(CC12CC3CC(CC(C3)C1)C2)c1c(C2CC2)ccc2cncn12` (stereo not shown) [Example A163, 2-(Adamantan-1-yl)-1-(6-cyclopropylimidazo[1,5-a]pyridin-5-yl)ethan-1-ol] has an EC50 [1, 4] of 102 nM and an IC50 [2, 4] of 94 nM.
Compound `OC1CCCC(C(O)c2c(C3CC3)ccc3cncn23)C1` (stereo not shown) [Example A164b, 3-((6-Cyclopropylimidazo[1,5-a]pyridin-5-yl)(hydroxy)methyl)cyclohexan-1-ol] has an EC50 [1, 4] of 226 nM and an IC50 [2, 4] of 42 nM.
